In patent US11149037B2, “Pyrazole MAGL inhibitors” (H. Lundbeck A/S, priority 2017, dated 2021):

Key:
Format in all cases: biochemical
[1] = target: MAGL (Homo sapiens (Human), UniProt Q99685); test: In vitro competitive activity-based protein profiling, human proteomes (prefrontal cortex or PC3 cell membrane fractions); details: human proteome; for inhibition at 1 µM: read-out: MAGL % inh. 1 μM (human); for inhibition at 10 µM: read-out: MAGL % inh. (human) @ 10 μM
Experimental: (§1) In Vitro Competitive Activity-Based Protein Profiling.
(§2) Proteomes (mouse brain membrane fraction or cell lysates for mouse assays; human prefrontal cortex or PC3 cell membrane fractions for human assays) (50 μL, 1.0 or 2.0 mg/mL total protein concentration) were preincubated with varying concentrations of inhibitors at 37° C. After 30 min, FP-Rh or JW912 or HT-01 (1.0 μL, 50 μM in DMSO) was added and the mixture was incubated for another 30 min at 37° C. Reactions were quenched with SDS loading buffer (15 μL-4×) and run on SDS-PAGE. Following gel imaging, serine hydrolase activity was determined by measuring fluorescent intensity of gel bands corresponding to MAGL and FAAH using ImageJ 1.43u software.

[2] = target: FAAH (Homo sapiens (Human), UniProt O00519); test: as above; details: human proteome; for inhibition at 1 µM: read-out: FAAH % inh. 1 μM (human)
FAAH (Homo sapiens (Human), UniProt O00519), sequence (O00519 whole entry): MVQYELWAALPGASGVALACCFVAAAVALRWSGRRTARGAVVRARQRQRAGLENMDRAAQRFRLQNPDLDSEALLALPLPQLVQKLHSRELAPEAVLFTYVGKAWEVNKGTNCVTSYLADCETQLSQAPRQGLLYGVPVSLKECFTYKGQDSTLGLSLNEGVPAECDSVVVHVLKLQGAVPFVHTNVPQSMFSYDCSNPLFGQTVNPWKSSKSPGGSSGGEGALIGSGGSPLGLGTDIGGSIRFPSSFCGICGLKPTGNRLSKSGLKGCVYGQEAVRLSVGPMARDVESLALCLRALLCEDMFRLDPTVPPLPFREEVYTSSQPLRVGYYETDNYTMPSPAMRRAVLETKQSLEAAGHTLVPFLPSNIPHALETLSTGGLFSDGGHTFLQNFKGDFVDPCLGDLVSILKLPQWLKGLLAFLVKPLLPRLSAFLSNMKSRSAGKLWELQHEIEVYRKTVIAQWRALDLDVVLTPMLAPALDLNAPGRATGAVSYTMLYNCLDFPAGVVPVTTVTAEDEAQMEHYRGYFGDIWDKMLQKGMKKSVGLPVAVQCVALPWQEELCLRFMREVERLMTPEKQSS
Experimental: as §1, §2

[3] = target: MAGL (Mus musculus (Mouse), UniProt O35678); test: In vitro competitive activity-based protein profiling, mouse proteomes (brain membrane fraction or cell lysates); details: mouse proteome, read-out: MAGL % inh. 1 μM (mouse)
MAGL (Mus musculus (Mouse), UniProt O35678), sequence (O35678 whole entry): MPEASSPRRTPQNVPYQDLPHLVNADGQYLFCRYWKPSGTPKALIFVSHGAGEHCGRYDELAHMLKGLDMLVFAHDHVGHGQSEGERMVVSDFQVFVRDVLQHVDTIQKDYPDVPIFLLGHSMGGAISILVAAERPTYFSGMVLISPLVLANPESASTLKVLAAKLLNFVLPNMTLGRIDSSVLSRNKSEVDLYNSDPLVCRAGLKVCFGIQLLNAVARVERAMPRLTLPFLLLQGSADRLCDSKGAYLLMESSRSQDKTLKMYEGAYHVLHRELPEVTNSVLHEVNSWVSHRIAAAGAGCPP
Experimental: as §1, §2

[4] = target: FAAH (Mus musculus (Mouse), UniProt O08914); test: as above; details: mouse proteome, read-out: FAAH % inh. 1 μM (mouse)
FAAH (Mus musculus (Mouse), UniProt O08914), sequence (O08914 whole entry): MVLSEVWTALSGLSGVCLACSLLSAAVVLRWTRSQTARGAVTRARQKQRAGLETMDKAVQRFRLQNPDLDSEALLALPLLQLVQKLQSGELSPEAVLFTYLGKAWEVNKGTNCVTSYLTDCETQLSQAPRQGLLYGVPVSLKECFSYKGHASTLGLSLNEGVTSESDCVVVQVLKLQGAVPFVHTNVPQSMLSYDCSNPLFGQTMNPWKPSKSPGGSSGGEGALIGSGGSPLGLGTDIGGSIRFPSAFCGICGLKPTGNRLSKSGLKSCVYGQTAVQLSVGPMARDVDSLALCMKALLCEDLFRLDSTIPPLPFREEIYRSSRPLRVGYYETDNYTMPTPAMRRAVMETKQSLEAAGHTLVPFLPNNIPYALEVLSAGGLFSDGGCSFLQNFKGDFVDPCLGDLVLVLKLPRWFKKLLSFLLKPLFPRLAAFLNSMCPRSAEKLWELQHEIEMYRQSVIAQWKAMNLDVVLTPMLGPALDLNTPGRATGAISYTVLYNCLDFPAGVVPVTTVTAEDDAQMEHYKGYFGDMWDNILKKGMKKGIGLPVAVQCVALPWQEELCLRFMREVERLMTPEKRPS
Experimental: as §1, §2

MAGL (Homo sapiens (Human), UniProt Q99685), sequence (Q99685 whole entry): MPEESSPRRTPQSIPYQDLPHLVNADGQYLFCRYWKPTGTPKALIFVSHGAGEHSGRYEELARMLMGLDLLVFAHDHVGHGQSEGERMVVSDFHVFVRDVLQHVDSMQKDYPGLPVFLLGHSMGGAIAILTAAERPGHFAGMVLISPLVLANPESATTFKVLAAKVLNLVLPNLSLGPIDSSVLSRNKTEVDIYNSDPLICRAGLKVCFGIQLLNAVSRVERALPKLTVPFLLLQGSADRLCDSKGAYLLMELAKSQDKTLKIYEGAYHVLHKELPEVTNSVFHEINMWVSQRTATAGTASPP

| Structure (SMILES) | inhibition at 1 µM [1] | inhibition at 1 µM [2] | inhibition at 1 µM [3] | inhibition at 1 µM [4] | inhibition at 50 µM ([1]; 50 μM, read-out: MAGL % inh. (human) @ 50 μM) | IC50 [1] | IC50 [2] | inhibition at 10 µM [1] |
| --- | --- | --- | --- | --- | --- | --- | --- | --- |
| CS(=O)(=O)Nc1ccn(C(=O)N2CC3CN(Cc4ccc(N5CCCC5)cc4C(F)(F)F)CC3C2)n1 (stereo not shown) [Example 47, N-(1-(5-(4-(Pyrrolidin-1-yl)-2-(trifluoromethyl)benzyl)octahydropyrrolo[3,4-c]pyrrole-2-carbonyl)-1H-pyrazol-3-yl)methanesulfonamide] |  | 0 to 25% | 0 to 25% | 0 to 25% | 25 to 50% |  |  |  |
| CS(=O)(=O)Nc1ccn(C(=O)N2CCC(Oc3cccc(C(F)(F)F)c3-c3nnco3)CC2)n1 [Example 7, N-(1-(4-(2-(1,3,4-oxadiazol-2-yl)-3-(trifluoromethyl)phenoxy)piperidine-1-carbonyl)-1H-pyrazol-3-yl)methanesulfonamide] | > 75% | 0 to 25% | > 75% | 0 to 25% |  |  |  |  |
| CC(=O)Nc1ccn(C(=O)N2CCN(Cc3cc(Cl)cc(Oc4ccc(Cl)cc4)c3)CC2)n1 [Example 17, N-(1-(4-(3-chloro-5-(4-chlorophenoxy)benzyl)piperazine-1-carbonyl)-1H-pyrazol-3-yl)acetamide] | > 75% | > 75% | > 75% | > 75% |  |  |  |  |
| CS(=O)(=O)Nc1ccn(C(=O)N2CCN(Cc3ccc(C(F)(F)F)cc3S(=O)(=O)C3CC3)CC2)n1 [Example 89, N-(1-(4-(2-(Cyclopropylsulfonyl)-4-(trifluoromethyl)benzyl)piperazine-1-carbonyl)-1H-pyrazol-3-yl)methanesulfonamide] | > 75% | 0 to 25% | > 75% | 0 to 25% |  |  |  |  |
| CS(=O)(=O)Nc1ccn(C(=O)N2CCC(Oc3ccc(Cl)c(C4CCCC4)c3)CC2)n1 [Example 21, N-(1-(4-(4-chloro-3-cyclopentylphenoxy)piperidine-1-carbonyl)-1H-pyrazol-3-yl)methanesulfonamide] | > 75% | 0 to 25% | > 75% | 0 to 25% |  |  |  |  |
| CS(=O)(=O)Nc1ccn(C(=O)N2CCC(OCc3ccc(N4CCC(F)CC4)c(Cl)c3)CC2)n1 [Example 30, N-(1-(4-((3-chloro-4-(4-fluoropiperidin-1-yl)benzyl)oxy)piperidine-1-carbonyl)-1H-pyrazol-3-yl)methanesulfonamide] | > 75% |  | > 75% | > 75% |  |  |  |  |
| CC(=O)Nc1ccn(C(=O)N2CCN(Cc3cccc(C(F)(F)F)c3)CC2)n1 [Example 127, N-(1-(4-(3-(Trifluoromethyl)benzyl)piperazine-1-carbonyl)-1H-pyrazol-3-yl)acetamide] | > 75% | 0 to 25% | > 75% | 0 to 25% |  |  |  |  |
| CN(Cc1ccc(C(F)(F)F)nc1N1CCCC1)C1(C)CCN(C(=O)n2ccc(NS(C)(=O)=O)n2)CC1 [Example 91, N-(1-(4-Methyl-4-(methyl((2-(pyrrolidin-1-yl)-6-(trifluoromethyl)pyridin-3-yl)methyl)amino)piperidine-1-carbonyl)-1H-pyrazol-3-yl)methanesulfonamide] | > 75% | 25 to 50% | > 75% | 50 to 75% |  |  |  |  |
| CS(=O)(=O)Nc1ccn(C(=O)N2CCN(Cc3cc4cc(F)ccc4[nH]3)CC2)n1 [Example 107, N-(1-(4-((5-Fluoro-1H-indol-2-yl)methyl)piperazine-1-carbonyl)-1H-pyrazol-3-yl)methanesulfonamide] | > 75% | 0 to 25% | > 75% | 0 to 25% |  |  |  |  |
| C#Cc1ccc(CN2CCN(C(=O)n3ccc(NS(C)(=O)=O)n3)CC2)cc1 [Example 69, N-(1-(4-(4-Ethynylbenzyl)piperazine-1-carbonyl)-1H-pyrazol-3-yl)methanesulfonamide] |  | 0 to 25% | 0 to 25% | 0 to 25% |  |  |  | > 75% |
| CS(=O)(=O)Nc1ccn(C(=O)N2CCN(Cc3sc4ccccc4c3Cl)CC2)n1 [Example 70, N-(1-(4-((3-Chlorobenzo[b]thiophen-2-yl)methyl)piperazine-1-carbonyl)-1H-pyrazol-3-yl)methanesulfonamide] | > 75% | 0 to 25% | > 75% | 0 to 25% |  |  |  |  |
| C[C@H]1CN(C(=O)n2ccc(NS(C)(=O)=O)n2)CCN1Cc1cnc(C(F)(F)F)c(N2CCC(F)CC2)c1 [Example 33, (S)—N-(1-(4-((5-(4-fluoropiperidin-1-yl)-6-(trifluoromethyl)pyridin-3-yl)methyl)-3-methylpiperazine-1-carbonyl)-1H-pyrazol-3-yl)methanesulfonamide] | > 75% |  | > 75% | 0 to 25% |  |  |  |  |
| C[C@@H]1C[C@H](N(C)Cc2ccc(Cl)c(N3CC4COCC4C3)c2)CCN1C(=O)n1ccc(NS(C)(=O)=O)n1 (stereo partly drawn) [Example 27, N-(1-((2R,4R)-4-((4-chloro-3-(tetrahydro-1H-furo[3,4-c]pyrrol-5(3H)-yl)benzyl)(methyl)amino)-2-methylpiperidine-1-carbonyl)-1H-pyrazol-3-yl)methanesulfonamide] |  |  | 0 to 25% | 0 to 25% |  |  |  | 0 to 25% |
| CS(=O)(=O)Nc1ccn(C(=O)N2CC3CN(Cc4cccc(Oc5ccc(Cl)cc5)c4)CC3C2)n1 (stereo not shown) [Example 41, N-(1-(5-(3-(4-Chlorophenoxy)benzyl)octahydropyrrolo[3,4-c]pyrrole-2-carbonyl)-1H-pyrazol-3-yl)methanesulfonamide] |  |  | 0 to 25% | > 75% |  |  |  |  |
| CC(=O)Nc1ccn(C(=O)N2CC3CN(Cc4ccc(Oc5ccc(Cl)cc5)cc4)CC3C2)n1 (stereo not shown) [Example 44, N-(1-(5-(4-(4-Chlorophenoxy)benzyl)octahydropyrrolo[3,4-c]pyrrole-2-carbonyl)-1H-pyrazol-3-yl)acetamide] |  |  | > 75% | > 75% |  |  |  |  |
| CC(=O)Nc1ccn(C(=O)N2C[C@H]3C[C@H](N(C)Cc4ccccc4Cl)C[C@H]3C2)n1 [Example 36, N-(1-((3aR,5s,6aS)-5-((2-Chlorobenzyl)(methyl)amino)octahydrocyclopenta[c]pyrrole-2-carbonyl)-1H-pyrazol-3-yl)acetamide] |  |  | > 75% | > 75% |  |  |  |  |

Continued, values first:

| inhibition at 1 µM [1] | inhibition at 1 µM [2] | inhibition at 1 µM [3] | inhibition at 1 µM [4] | inhibition at 50 µM ([1]; 50 μM, read-out: MAGL % inh. (human) @ 50 μM) | IC50 [1] | IC50 [2] | inhibition at 10 µM [1] | Structure (SMILES) |
| --- | --- | --- | --- | --- | --- | --- | --- | --- |
| > 75% | 0 to 25% | > 75% | 0 to 25% |  |  |  |  | CS(=O)(=O)Nc1ccn(C(=O)N2CCN(Cc3ccc(Cl)c(N4CCC(F)(F)CC4)c3)CC2)n1 [Example 147, N-(1-(4-(4-Chloro-3-(4,4-difluoropiperidin-1-yl)benzyl)piperazine-1-carbonyl)-1H-pyrazol-3-yl)methanesulfonamide] |
| > 75% | > 75% | > 75% | > 75% |  | < 0.1 µM | 0.1 to 1 µM |  | CC(=O)Nc1ccn(C(=O)N2CC3CN(Cc4cc(F)cc(Cl)c4)CC3C2)n1 (stereo not shown) [Example 145, N-(1-(5-(3-Chloro-5-fluorobenzyl)octahydropyrrolo[3,4-c]pyrrole-2-carbonyl)-1H-pyrazol-3-yl)acetamide] |
| > 75% | 0 to 25% | > 75% | 0 to 25% |  |  |  |  | C[C@@H]1CN(Cc2ccc(Cl)c(N3CCC(F)CC3)c2)CCN1C(=O)n1ccc(NS(C)(=O)=O)n1 [Example 142, (R)-N-(1-(4-(4-Chloro-3-(4-fluoropiperidin-1-yl)benzyl)-2-methylpiperazine-1-carbonyl)-1H-pyrazol-3-yl)methanesulfonamide] |
| > 75% | 0 to 25% | > 75% | 0 to 25% |  |  |  |  | CC(=O)Nc1ccn(C(=O)N2CCC(C)(N(C)Cc3ccc(C(N)=O)c(C(F)(F)F)c3)CC2)n1 [Example 130, 4-(((1-(3-Acetamido-1H-pyrazole-1-carbonyl)-4-methylpiperidin-4-yl)(methyl)amino)methyl)-2-(trifluoromethyl)benzamide] |
|  |  | > 75% | 50 to 75% |  |  |  |  | CC(=O)Nc1ccn(C(=O)N2CC3CN(Cc4ccc(N5CCOCC5)c(C(F)(F)F)c4)CC3C2)n1 (stereo not shown) [Example 171, N-(1-(5-(4-Morpholino-3-(trifluoromethyl)benzyl)octahydropyrrolo[3,4-c]pyrrole-2-carbonyl)-1H-pyrazol-3-yl)acetamide] |
|  |  | > 75% | 50 to 75% |  |  |  |  | CC(=O)Nc1ccn(C(=O)N2CC3CN(Cc4ccc(Cl)cc4Cl)CC3C2)n1 (stereo not shown) [Example 174, N-(1-(5-(2,4-Dichlorobenzyl)octahydropyrrolo[3,4-c]pyrrole-2-carbonyl)-1H-pyrazol-3-yl)acetamide] |
|  |  | > 75% | 50 to 75% |  |  |  |  | CC(=O)Nc1ccn(C(=O)N2CC3CN(Cc4ccc(Cl)cc4)CC3C2)n1 (stereo not shown) [Example 170, N-(1-(5-(4-Chlorobenzyl)octahydropyrrolo[3,4-c]pyrrole-2-carbonyl)-1H-pyrazol-3-yl)acetamide] |
